Results: US9598463B2, “Mucin hypersecretion inhibitors and methods of use” (BIOMARCK PHARMACEUTICALS, LTD., priority 2005, dated 2017)
Marks after values point to notes of the source that are not given here. Where a SMILES comes first, the peptide text is derived from it. The star is where a group is joined. Myristoyl = CCCCCCCCCCCCCC(=O)*

Legend:
[1] = Qualitative solubility of test peptides in 0.5 N saline; assay type: physicochemical; settings: pH 6.5, 20° C. (table title)
Method: Various test peptides (1 to 5 mg each) were weighed out accurately in individual 2 mL screw cap glass vials and aliquots of 25 μL of 0.5 N saline, pH 6.5, were added at 25° C. and ambient pressure. The solubility was evaluated visually. If the test peptide dissolves completely with the first aliquot of saline, its solubility was calculated and designated as more than the calculated amount. […] Similarly, if 1.7 mg of a test peptide fails to dissolve in 1.7 mL of 0.5 N saline, its solubility is stated as <1.0 mg/mL.

[2] = tested on: methacholine-induced mucin hypersecretion; assay: Methacholine-induced mucin hypersecretion in ovalbumin-sensitized mouse model of asthma, BAL mucin ELISA (Balb/C mice); assay type: in vivo; settings: for Mucin Secretion % control: peptides at 100 μM; for Mucin Secretion % of control: Table IV
Text: Experiments were designed to test whether or not the MANS peptide and other test peptides related thereto inhibit hypersecretion of mucin in murine airway in vivo. The ovalbumin-sensitized mouse model of allergic inflammation and asthma used in these studies was as described by Singer et al. (2004), supra. As a negative control, a control peptide containing an N-terminal myristoyl group and the same amino acids as MANS peptide but arranged in random order (i.e., the random N-terminal sequence, RNS, myristoyl-peptide 232) was tested alongside the proposed active peptides. BP2 mice, aged 6-8 wks, were immunized subcutaneously twice at weekly intervals with 1 μg of ovalbumin. After 14 days of sensitization, the animals were exposed to aerosolized ovalbumin, which causes a pronounced goblet cell hyperplasia after 72 hours. At the 72 hr time point, the secretagogue, methacholine ([…]) was delivered using a Buxco system nebulizer providing a fine aerosol for 90 seconds. Fifteen min prior to the secretagogue challenge, 50 μL of the test peptide, at 3 different concentrations (10 μM, 100 μM, or 140 μM), was administered by intratracheal route. The RNS peptide was tested at the highest dose level only (50 μL of 140 μM solution). […] Each experiment was carried out in 6 mice per point, and each set of experiments was repeated 3 times. To test strain-to-strain variations, the above experiment was repeated in Balb/C mice under similar protocol. Both stimulated and unstimulated mucin secretion, in mice treated with […] sodium acetate (data not shown), were identical to saline control. Following the methacholine challenge, the animals were sacrificed and bronchoalveolar lavage (BAL) performed on 6 animals per group for analysis of secreted mucin.
Mice were sacrificed by cervical dislocation, followed by rapid exposure of the trachea and insertion of a cannula through a small incision. Bronchoalveolar lavage (BAL) fluid was collected with 0.5 ml followed by 3×1 ml PBS containing PMSF (5 mM), EDTA (5 mM), and DTT (5 mM). BAL fluid was separated into cell-free and cell fractions via brief centrifugation prior to any analyses being performed. The cell-free supernatants were analyzed for the presence of mucin via an ELISA method using anti-mucin antibodies shown to react with mouse mucin. Specifically, a mouse anti-MUC5AC antibody that recognizes the carbohydrate portion of secreted mucin was used in these assays. Data generated from each BAL sample were normalized to total protein as determined by Bradford assay. Mucin content was expressed as the value obtained with the anti-mucin antibody minus that obtained with the non-immune control antibody. All ELISA data were statistically examined using a one-way ANOVA.

[3] = Stability of test peptides in human BALF (LC/MS/MS, first order half-life); assay type: in vitro ADME; settings: human BALF from COPD patients
Method: (§1) Various test peptides in human plasma, human BALF, and CF patient mucus were analyzed to determine the susceptability of the test peptide to proteolysis in the biological fluids. […] The samples were analyzed either on the same day as received or stored at −20° C. and analyzed within the following two days.
Samples of BALF collected from COPD patients were obtained and frozen. The BALF samples were thawed, mixed together and centrifuged at 10,000×g for 10 min at 4-8° C. The supernatant (0.9 mL) was spiked with 0.1 mL of 0.5 mg/mL solution of the peptide in 75 mM sodium acetate buffer at pH 7.0 and processed and analyzed as described above.
(§2) All samples were analyzed using LC/MS/MS (MDS/SCIEX, API 4000 Model). Chromatography was performed using a Phenomenex Luna C18 column, while mass spectrometry was performed using positive ion electrospray ionization.
(§3) Calibration standards were analyzed by LCMS at concentrations of 0.100 μg/mL, 1.00 μg/mL, 10.0 μg/mL, and 100 μg/mL for each peptide, with the exception of the calibration standards for peptides myr-PEPTIDE 106, PEPTIDE 106, PEPTIDE 106-NH2, PEPTIDE 106, and cyclic peptide, cyc-PEPTIDE 106, in human mucus, which were analyzed at concentrations of 0.100 μg/mL, 1.00 μg/mL, 10.0 μg/mL, and 75 μg/mL. Standards were prepared in 1% human BALF, plasma, or mucus in 50/50 water/acetonitrile mixture containing 0.2% formic acid. The instrument response values for each set of standards were fit using a 1/(concentration)^2 linear least-squares line. Sample concentrations were calculated using the slope and intercept of this line. Concentrations outside of the calibration range were determined by extrapolating the calibration curve.
Duplicate calibration standards were analyzed at a concentration of 50 μg/mL for each peptide. The instrument response values for each set of standards were fit through an intercept of 0 using an unweighted, linear least-squares line. Sample concentrations were calculated using the slope and intercept of this line.
For the analysis of peptide concentration in BALF samples, one 50 μg/mL calibration standard prepared in a mixture of BALF, water, acetonitrile, and formic acid was analyzed with each sample set.
(§4) Watson fits the log transformed data with a least-squares line to determine parameters such as Cmax (maximum concentration), intercept, rate constant, slope, and T1/2 (half-life). The resulting kinetic parameters were based on the linear fit, not the actual concentration values.
(§5) Time-zero calibration standards in solution were not included as part of the kinetic profiles.

[4] = Stability of test peptides in human plasma (LC/MS/MS, first order half-life); assay type: in vitro ADME; settings: human plasma, 37° C., 1st experiment, read-out: Plasma t1/2 (1st exp.) (converted)
Method: as §1
Fresh human blood samples were collected in citrate buffered vacuutrainers (in absence of EDTA or heparin). Red blood cells (RBC) were removed by centrifugation of the blood at 4000×g for 10 min at 4° C. Plasma aliquots (0.9 mL) were then spiked with 0.1 mL of 0.5 mg/mL solution of the test peptide in 75 mM sodium acetate buffer at pH 7.0 and incubated in a water bath maintained at 37° C. Duplicate aliquots of 10 μL, were withdrawn at 5, 15, 30, 60, and 180 minutes intervals and immediately “quenched” with 990 μL of a solution consisting of 50% acetonitrile+50% water containing 0.2% formic acid. The samples were then subjected to liquid chromatography-mass spectrometry (LCMS) analysis.
as §2
as §3, with “curve. […]” for “curve.”
For the analysis of peptide concentration in plasma, duplicate calibration standards were analyzed at a concentration of 25 μg/mL and 50 μg/mL for each peptide. The instrument response values for each set of standards were fit through an intercept of 0 using an unweighted, linear least-squares line. Sample concentrations were calculated using the slope and intercept of this line. Concentrations outside of the calibration range were determined by extrapolating the calibration curve.
as §4, §5

[5] = Table II, 50 μL intratracheal 15 min before methacholine
[6] = cerebrospinal or other body fluid, 1st experiment, read-out: BALF t1/2 (1st exp.) (converted)
[7] = cerebrospinal or other body fluid, 2nd experiment, read-out: BALF t1/2 (2nd exp.) (converted)

Row | Compound | solubility [1] [µg/mL] | Mucin Secretion % control [2, 5] [% control] | Mucin Secretion % control ([2]; Table III) | other results
1 | CCCCCCCCCCCCCC(=O)NCC(=O)N[C@@H](C)C(=O)N[C@@H](CCC(N)=O)C(=O)N[C@@H](C)C(=O)N[C@@H](CO)C(=O)N[C@@H](CCCCN)C(=O)N[C@H](C(=O)N[C@@H](C)C(=O)N[C@@H](C)C(=O)N[C@@H](CCCCN)C(N)=O)[C@@H](C)O [myr-peptide 236-NH2] (Myristoyl-GAQASKTAAK-NH2) | < 10000 | 51 |  | half-life [3, 6]: 4.16 h; half-life [3, 7]: 4.08 h
2 | H-GAQASKTAAKGE-OH [peptide 237, GAQASKTAAKGE] | > 80000 |  |  | half-life [4]: 0.49 h; Mucin Secretion % of control ([2]; peptide 10 μM): 67*+ % of control; Mucin Secretion % of control ([2]; peptide 100 μM): 8** % of control
3 | Ac-GAQFSKTAAKGE-NH2 [Ac-peptide 79-NH2] | > 60000 |  |  | half-life [4]: 2.64 h
4 | CCCCCCCCCCCCCC(=O)NCC(=O)N[C@@H](C)C(=O)N[C@@H](CCC(N)=O)C(=O)N[C@@H](Cc1ccccc1)C(=O)N[C@@H](CO)C(=O)N[C@@H](CCCCN)C(=O)N[C@H](C(=O)N[C@@H](C)C(=O)N[C@@H](C)C(=O)N[C@@H](CCCCN)C(N)=O)[C@@H](C)O [myr-peptide 106-NH2] (Myristoyl-GAQFSKTAAK-NH2) | < 10000 | 29.3 |  | Mucin Secretion % of control ([2]; peptide 10 μM): 67*+ % of control; Mucin Secretion % of control ([2]; peptide 100 μM): 17** % of control; half-life [3, 6]: 10.5 h; half-life [3, 7]: 12.8 h
5 | CCCCCCCCCCCCCC(=O)NCC(=O)N[C@@H](CCCCN)C(=O)N[C@@H](CCC(N)=O)C(=O)N[C@@H](Cc1ccccc1)C(=O)N[C@@H](CO)C(=O)N[C@@H](CCCCN)C(=O)N[C@H](C(=O)N[C@@H](CCCCN)C(=O)N[C@@H](C)C(=O)N[C@@H](CCCCN)C(=O)NCC(=O)N[C@@H](CCC(=O)O)C(=O)O)[C@@H](C)O [myr-peptide 235] (Myristoyl-GKQFSKTKAKGE-OH) | > 60000 | 13 |  | 
6 | CCCCCCCCCCCCCC(=O)N[C@@H](CCCNC(=N)N)C(=O)N1CCC[C@H]1C(=O)NCC(=O)N[C@@H](CCC(=O)O)C(=O)N[C@@H](C)C(=O)N[C@@H](C)C(=O)N[C@H](C(=O)N[C@@H](C)C(=O)O)C(C)C [myr-peptide 153] (Myristoyl-RPGEAAVA-OH) | < 10000 |  | 50 % control | 
7 | CCCCCCCCCCCCCC(=O)NCC(=O)N[C@@H](CCCCN)C(=O)N[C@@H](CCC(N)=O)C(=O)N[C@@H](Cc1ccccc1)C(=O)N[C@@H](CO)C(=O)N[C@@H](CCCCN)C(=O)N[C@H](C(=O)N[C@@H](C)C(=O)N[C@@H](C)C(=O)N[C@@H](CCCCN)C(=O)NCC(=O)N[C@@H](CCC(=O)O)C(=O)O)[C@@H](C)O [myr-peptide 233] (Myristoyl-GKQFSKTAAKGE-OH) | > 3000 | 21 |  | 
8 | CCCCCCCCCCCCCC(=O)NCC(=O)N[C@@H](C)C(=O)N[C@@H](CCC(N)=O)C(=O)N[C@@H](Cc1ccccc1)C(=O)N[C@@H](CO)C(=O)N[C@@H](CCCCN)C(=O)N[C@H](C(=O)N[C@@H](C)C(=O)N[C@@H](C)C(=O)N[C@@H](CCCCN)C(=O)NCC(=O)N[C@@H](CCC(=O)O)C(=O)N[C@@H](C)C(=O)N[C@@H](C)C(=O)N[C@@H](C)C(=O)N[C@@H](CCC(=O)O)C(=O)N[C@@H](CCCNC(=N)N)C(=O)N1CCC[C@H]1C(=O)NCC(=O)N[C@@H](CCC(=O)O)C(=O)O)[C@@H](C)O [myr-peptide 11] (Myristoyl-GAQFSKTAAKGEAAAERPGE-OH) | > 2000 |  | 54 % control | 
9 | CCCCCCCCCCCCCC(=O)NCC(=O)N[C@@H](C)C(=O)N[C@@H](CCC(N)=O)C(=O)N[C@@H](Cc1ccccc1)C(=O)N[C@@H](CO)C(=O)N[C@@H](CCCCN)C(=O)N[C@H](C(=O)N[C@@H](CCCCN)C(=O)N[C@@H](C)C(=O)N[C@@H](CCCCN)C(=O)NCC(=O)N[C@@H](CCC(=O)O)C(=O)O)[C@@H](C)O [myr-peptide 234] (Myristoyl-GAQFSKTKAKGE-OH) | > 3000 | 8 |  | half-life ([3]; 1st experiment, read-out: BALF t1/2 (1st exp.) (converted)): 1.08 h
10 | CCCCCCCCCCCCCC(=O)N[C@@H](C)C(=O)N[C@@H](CCCCN)C(=O)NCC(=O)N[C@@H](CCC(=O)O)C(=O)N[C@@H](C)C(=O)N[C@@H](C)C(=O)N[C@@H](C)C(=O)N[C@@H](CCC(=O)O)C(=O)N[C@@H](CCCNC(=N)N)C(=O)N1CCC[C@H]1C(=O)NCC(=O)N[C@@H](CCC(=O)O)C(=O)N[C@@H](C)C(=O)N[C@@H](C)C(=O)N[C@H](C(=O)N[C@@H](C)C(=O)O)C(C)C [myr-peptide 45] (Myristoyl-AKGEAAAERPGEAAVA-OH) | > 80000 |  | 35** % control | 
